Laboratory results published in PMC8453848, “Effect of GLPG1205, a GPR84 Modulator, on CYP2C9, CYP2C19, and CYP1A2 Enzymes: In Vitro and Phase 1 Studies” (Clinical Pharmacology in Drug Development, 2021).
Where two headings read alike, the source gives them in different places. One block for each compound: values may come before it.

Legend:
CYP1A2 [1] = target: T1, CYP1A2 (Homo sapiens, UniProt P05177); settings: for tmax: median (min‐max); for R_AUC0‐t (metabolite‐over‐parent ratio): geometric mean (geometric CV%)
T1 sequence (P05177 1-516): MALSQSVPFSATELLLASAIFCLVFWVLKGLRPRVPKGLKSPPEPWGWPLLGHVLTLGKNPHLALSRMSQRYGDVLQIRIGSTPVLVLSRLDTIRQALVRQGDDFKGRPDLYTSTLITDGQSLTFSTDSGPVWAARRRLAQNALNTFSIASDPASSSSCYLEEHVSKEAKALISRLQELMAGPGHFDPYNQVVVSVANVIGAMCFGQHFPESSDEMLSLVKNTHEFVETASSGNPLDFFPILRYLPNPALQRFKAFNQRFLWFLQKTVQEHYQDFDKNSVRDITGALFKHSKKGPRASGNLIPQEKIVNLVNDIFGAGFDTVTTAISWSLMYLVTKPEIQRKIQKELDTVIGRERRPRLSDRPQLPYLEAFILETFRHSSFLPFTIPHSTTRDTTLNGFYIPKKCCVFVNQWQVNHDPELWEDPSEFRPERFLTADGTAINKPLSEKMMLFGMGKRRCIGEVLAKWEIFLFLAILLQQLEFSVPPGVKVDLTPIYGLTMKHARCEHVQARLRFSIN

CYP1A2 [2] = target: T1, CYP1A2; assay: clinical; settings: male, plasma, oral; for half-life: t1/2, λz
CYP2C19 = CYP2C19 (Homo sapiens, UniProt P33261); assay: Phase 1 drug-drug interaction study: PK of omeprazole and 5-hydroxyomeprazole with placebo or GLPG1205; settings: for tmax: median (min‐max); for AUC: male, plasma, oral, arithmetic mean (CV%)
Sequence of CYP2C19 (P33261 whole entry): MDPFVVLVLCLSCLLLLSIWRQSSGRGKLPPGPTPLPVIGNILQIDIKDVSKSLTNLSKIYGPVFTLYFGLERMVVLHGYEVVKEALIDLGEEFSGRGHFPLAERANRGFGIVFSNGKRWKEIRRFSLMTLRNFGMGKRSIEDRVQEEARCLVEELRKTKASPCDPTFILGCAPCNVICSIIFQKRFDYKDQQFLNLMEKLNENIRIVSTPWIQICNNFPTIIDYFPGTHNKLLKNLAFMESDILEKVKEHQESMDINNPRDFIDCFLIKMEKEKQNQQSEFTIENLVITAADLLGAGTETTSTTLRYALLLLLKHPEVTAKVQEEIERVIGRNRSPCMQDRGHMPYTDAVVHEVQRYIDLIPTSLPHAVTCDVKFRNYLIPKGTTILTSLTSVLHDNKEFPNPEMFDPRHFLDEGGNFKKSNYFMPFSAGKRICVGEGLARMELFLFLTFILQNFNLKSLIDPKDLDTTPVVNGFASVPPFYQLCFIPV
Experimental: Prior to injection into the analytical system, isolation of omeprazole, its metabolite and the deuterated IS (omeprazole –d3) from 200 µL of human Li-heparin plasma was performed by solid phase extraction performed on Oasis HBL 60mg 3cc cartridges (Waters, Zellik, Belgium). The elution from the cartridges was done with 1 mL of methanol and then the eluate was evaporated to dryness under a stream of nitrogen at approximatively +35°C. The residue was reconstituted with 0.2 mL of mobile phase and then centrifuged at about 3500 rpm for 5 minutes at +5°C. 120 µL of the clear supernatant was transferred into injection vials. […] Chromatographic separation was performed on a Zorbax XBD-C8 column (Agilent, Eindhoven, The Netherlands) (50 x 4.6 mm, 3.5 µm from Interchim) by using a Nexera HLPC system (Shimadzu, Kyoto, Japan) in isocratic elution mode.

CYP2C9 = CYP2C9 (Homo sapiens, UniProt P11712); settings: for AUC0‐inf: arithmetic mean (CV%); for tmax: median (min‐max)
Sequence of CYP2C9 (P11712 whole entry): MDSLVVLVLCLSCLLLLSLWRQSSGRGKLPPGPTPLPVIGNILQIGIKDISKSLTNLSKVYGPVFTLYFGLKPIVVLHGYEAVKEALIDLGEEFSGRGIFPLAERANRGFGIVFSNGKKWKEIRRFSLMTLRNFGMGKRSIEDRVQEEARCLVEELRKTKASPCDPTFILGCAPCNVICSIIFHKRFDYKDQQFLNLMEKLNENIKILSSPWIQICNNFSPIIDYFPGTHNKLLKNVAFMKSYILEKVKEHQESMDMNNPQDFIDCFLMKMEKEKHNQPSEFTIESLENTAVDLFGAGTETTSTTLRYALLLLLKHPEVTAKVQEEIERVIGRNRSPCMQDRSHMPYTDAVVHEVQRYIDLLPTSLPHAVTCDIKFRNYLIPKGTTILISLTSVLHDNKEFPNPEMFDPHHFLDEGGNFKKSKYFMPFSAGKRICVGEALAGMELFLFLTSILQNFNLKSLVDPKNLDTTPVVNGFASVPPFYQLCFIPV

[3] = AUC0‐t, GLPG1205 100 mg once a day + caffeine, arithmetic mean (CV%)
[4] = AUC0‐t, Placebo + caffeine, arithmetic mean (CV%)
[5] = GLPG1205 100 mg once a day + caffeine 100 mg day 13, n = 14, arithmetic mean (CV%)
[6] = Placebo + caffeine 100 mg day 13, n = 14, arithmetic mean (CV%)
[7] = GLPG1205 relative to placebo (ANOVA)
[8] = GLPG1205 100 mg once a day + caffeine
[9] = GLPG1205 100 mg once a day + warfarin

Structure (SMILES): Cn1c(=O)c2c(ncn2C)n(C)c1=O [Caffeine, caffeine]
tmax (CYP1A2 [1]; Placebo + caffeine): 1.0 (0.3‐3.0) h
AUC (CYP1A2 [2]; AUC0‐inf, GLPG1205 100 mg once a day + caffeine, arithmetic mean (CV%)): 17400 ng·h/mL
AUC (CYP1A2 [2]; AUC0‐inf, Placebo + caffeine, n = 12, arithmetic mean (CV%)): 18700 ng·h/mL
AUC (CYP1A2 [2]; [3]): 15700 ng·h/mL
AUC (CYP1A2 [2]; [4]): 16300 ng·h/mL
Cmax (CYP1A2 [2]; [5]): 2160 ng/mL
Cmax (CYP1A2 [2]; [6]): 2150 ng/mL
half-life (CYP1A2 [2]; GLPG1205 100 mg once a day + caffeine, arithmetic mean (CV%)): 4.9 h
half-life (CYP1A2 [2]; Placebo + caffeine, n = 13, arithmetic mean (CV%)): 5.73 h

Structure (SMILES): COc1ccc2nc([S+]([O-])Cc3ncc(CO)c(OC)c3C)[nH]c2c1 (centres unmarked) [5‐Hydroxyomeprazole, 5‐hydroxyomeprazole]
AUC0‐inf, PE (90% CI) of least‐squares geometric means ratio (CYP2C19; human, in vivo): 1.08 (0.98‐1.20)
AUC0‐t, PE (90% CI) of least‐squares geometric means ratio (CYP2C19; human, in vivo): 1.08 (0.96‐1.21)
R_AUC0‐inf, PE (90% CI) of least‐squares geometric means ratio (CYP2C19; in vivo): 0.83 (0.77‐0.89)
R_AUC0‐t, PE (90% CI) of least‐squares geometric means ratio (CYP2C19; in vivo): 0.84 (0.79‐0.89)

Structure (SMILES): CC(=O)C[C@@H](c1ccccc1)c1c(O)c2ccc(O)cc2oc1=O [(S)‐7‐Hydroxywarfarin, (S)‐7‐hydroxywarfarin]
AUC0‐t, PE (90% CI) of least‐squares geometric means ratio (CYP2C9; human, in vivo): 1.15 (1.00‐1.32)
R_AUC0‐t, PE (90% CI) of least‐squares geometric means ratio (CYP2C9; in vivo): 1.01 (0.87‐1.19)

Structure (SMILES): CC(=O)C[C@@H](c1ccccc1)c1c(O)c2ccccc2oc1=O [(S)‐Warfarin, (S)‐warfarin]
Cmax (CYP2C9; GLPG1205 100 mg once a day + warfarin 10 mg day 13, n = 14, arithmetic mean (CV%)): 0.481 (19.8) μg/mL
AUC0‐inf (CYP2C9; [9]): 17.5 (24.9) μg·h/mL
tmax (CYP2C9; [9]): 2.0 (0.5‐4.0) h
Cmax (CYP2C9; Placebo + warfarin 10 mg day 13, n = 14, arithmetic mean (CV%)): 0.453 (21.3) μg/mL
AUC0‐inf (CYP2C9; Placebo + warfarin): 15.1 (21.1) μg·h/mL
tmax (CYP2C9; Placebo + warfarin): 2.0 (0.5‐4.0) h

Continued, values first:

tmax (CYP2C19; GLPG1205 100 mg once a day + omeprazole): 2.0 (1.0‐5.0) h
AUC0‐inf, PE (90% CI) of least‐squares geometric means ratio (CYP2C19; [7]): 1.36 (1.18‐1.58)
AUC0‐t, PE (90% CI) of least‐squares geometric means ratio (CYP2C19; [7]): 1.28 (1.10‐1.49)
Cmax, PE (90% CI) of least‐squares geometric means ratio (CYP2C19; [7]): 1.30 (1.03‐1.65)
t1/2, λz, PE (90% CI) of least‐squares geometric means ratio (CYP2C19; [7]): 1.09 (0.97‐1.22)
tmax (CYP2C19; Placebo + omeprazole): 3.0 (2.0‐5.0) h
AUC (CYP2C19; human, 20 mg, AUC0‐inf, Placebo + omeprazole): 520 ng·h/mL
AUC (CYP2C19; human, 20 mg, AUC0‐t, Placebo + omeprazole): 486 ng·h/mL
AUC (CYP2C19; human, AUC0‐inf, GLPG1205 100 mg once a day + omeprazole): 548 ng·h/mL
AUC (CYP2C19; human, AUC0‐t, GLPG1205 100 mg once a day + omeprazole): 563 ng·h/mL
Structure (SMILES): COc1ccc2[nH]c([S+]([O-])Cc3ncc(C)c(OC)c3C)nc2c1 (centres unmarked) [Omeprazole, omeprazole, reference compound]

R_AUC0‐t (metabolite‐over‐parent ratio) (CYP1A2 [1]; [8]): 0.538 (27.7)
tmax (CYP1A2 [1]; [8]): 7.0 (0.3‐12.0) h
AUC0‐t, PE (90% CI) of least‐squares geometric means ratio (CYP1A2 [1]; [7]): 0.96 (0.79‐1.16)
Cmax, PE (90% CI) of least‐squares geometric means ratio (CYP1A2 [1]; [7]): 1.08 (0.97‐1.21)
R_AUC0‐t, PE (90% CI) of least‐squares geometric means ratio (CYP1A2 [1]; [7]): 1.00 (0.87‐1.15)
R_AUC0‐t (metabolite‐over‐parent ratio) (CYP1A2 [1]; Placebo + caffeine): 0.539 (30.5)
AUC (CYP1A2 [2]; [3]): 8600 ng·h/mL
AUC (CYP1A2 [2]; [4]): 8430 ng·h/mL
Cmax (CYP1A2 [2]; [5]): 634 ng/mL
Cmax (CYP1A2 [2]; [6]): 577 ng/mL
Structure (SMILES): Cn1c(=O)[nH]c2ncn(C)c2c1=O [Paraxanthine, paraxanthine]
